Laboratory results published in patent US5236957A, “N-phenylalkyl substituted α-amino carboxamide derivatives and process for their preparation” (Farmitalia Carlo Erba Srl, priority 1989, dated 1993).
Where two headings read alike, the source gives them in different places.

Columns and labels:
[1] = system: bicucculine-induced lethality in mice; assay: Antagonism of bicucculine-induced lethality in mice; type: in vivo; conditions: Mus musculus, po; drugs given orally 1 h before bicucculine (0.6 mg/kg, i.v.); protection of 50% of mice from lethality
Protocol: (§1) The activity on the CNS of the compounds of the invention was evaluated on the basis of pharmacological methods, such as, for example, the antagonism of convulsions and lethality induced by intravenous injection of bicucculine in mice (Antiepileptic Drug, D. M. Woodbury et al. eds., 2nd edition, Raven Press, New York, 1982), or the antagonism of convulsions induced in mice by subcutaneous injection of 3-mercaptopropionic acid (W. Loscher, Biochem. Pharmacol., 28; 1397-1407, 1979). Accordingly in following Tables 1 and 2, the doses which protect 50% of the mice (i.e. ED50) from lethality and tonic convulsions induced by bicucculine and 3-mercaptopropanoic acid, respectively, are given for a representative group of compounds according to the present invention.
Antagonism of bicucculine-induced lethality in mice.
Drugs were given orally 1 h before bicucculine (0.6 mg/kg, i.v.)

[2] = system: 3-mercaptopropionic acid (MPA) induced tonic convulsions in mice; assay: Antagonism of 3-mercaptopropionic acid (MPA) induced tonic convulsions in mice; type: in vivo; conditions: Mus musculus, po
Protocol: as §1
Antagonism of 3-mercaptopropionic acid (MPA) induced
tonic convulsions in mice; drugs were given orally
1 h before MPA (60 mg/kg s.c.)

MAO type B = biological target: T1, MAO type B (Rattus norvegicus, UniProt P19643); assay: Inhibition of MAO type B, rat liver mitochondria, 2-phenylethylamine as substrate; type: biochemical; conditions: rat liver mitochondria as source of MAO
T1 construct: using rat liver mitochondria as the source of MAO; from tissue; host or cells: rat liver mitochondria
T1 sequence (P19643 1-520): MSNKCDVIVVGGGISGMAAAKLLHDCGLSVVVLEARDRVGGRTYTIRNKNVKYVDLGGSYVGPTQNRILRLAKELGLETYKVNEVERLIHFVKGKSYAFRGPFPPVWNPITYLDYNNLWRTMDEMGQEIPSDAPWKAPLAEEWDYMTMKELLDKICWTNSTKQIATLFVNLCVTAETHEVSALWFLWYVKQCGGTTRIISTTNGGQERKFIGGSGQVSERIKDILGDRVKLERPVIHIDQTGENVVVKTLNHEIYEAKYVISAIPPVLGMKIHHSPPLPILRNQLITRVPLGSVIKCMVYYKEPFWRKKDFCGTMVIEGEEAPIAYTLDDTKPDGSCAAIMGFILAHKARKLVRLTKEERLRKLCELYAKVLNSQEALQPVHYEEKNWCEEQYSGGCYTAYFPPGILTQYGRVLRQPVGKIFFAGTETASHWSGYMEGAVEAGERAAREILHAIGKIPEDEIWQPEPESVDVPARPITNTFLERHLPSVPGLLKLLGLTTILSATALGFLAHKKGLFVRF

[3] = system: serotonin (5-HT) and 5-hydroxy-indole-3-acetic acid (5-HIAA); assay: Levels of 5-HT and 5-HIAA in frontal cortex of mice; type: in vivo; conditions: 200 mg/kg p.o.
[4] = drugs given orally 1 h before MPA (60 mg/kg s.c.), protection of 50% of mice from tonic convulsions, read-out: ED50

What does the source list for `NC(=O)CNCc1ccc(OCc2cccc(Cl)c2)cc1` [FCE 25989, 2-[4-(3-chlorobenzyloxy)benzyl]aminoacetamide]?
ED50 [1]: 190 mg/kg; ED50 [2, 4]: 28 mg/kg; IC50 (MAO type B): 200 nM; increase of 5-HIAA [3]: 37%; increase of 5-HT [3]: 48%

Which results are given for `C[C@@H](NCc1ccc(OCc2cccc(Cl)c2)cc1)C(N)=O` [FCE 26312, (R)-2-[4-(3-chlorobenzyloxy)benzyl]aminopropionamide]?
ED50 [1]: 50 mg/kg; ED50 [2, 4]: 10 mg/kg

What does the source list for `CNC(=O)[C@H](CO)NCc1ccc(OCc2ccccc2)cc1` [FCE 26358, (S)-2-(4-benzyloxybenzyl)amino-3-hydroxy-N-methylpropionamide]?
ED50 [1]: 16 mg/kg; ED50 [2, 4]: 43 mg/kg

`CNC(=O)[C@H](CO)NCc1ccc(OCc2cccc(Cl)c2)cc1` [FCE 26359, (S)-2-[4-(3-chlorobenzyloxy)benzyl]amino-3-hydroxy-N-methylpropionamide] was tested. Which ED50 [2, 4] did it give?
The ED50 was 29 mg/kg.

Which ED50 [1] does the source give for `CNC(=O)[C@H](CO)NCc1ccc(OCc2ccccc2Cl)cc1` [FCE 26502, (S)-2-[4-(2-chlorobenzyloxy)benzyl]amino-3-hydroxy-N-methylpropionamide] here?
The ED50 was 27 mg/kg.

And the ED50 [2, 4]?
The ED50 was 16 mg/kg.

Which results are given for `C[C@H](NCc1ccc(OCc2ccccc2)cc1)C(N)=O` [FCE 26550, (S)-2-(4-benzyloxybenzyl)aminopropionamide]?
ED50 [1]: 15 mg/kg; ED50 [2, 4]: 13 mg/kg

How did the ED50 [1] turn out when `CNC(=O)[C@H](CO)NCc1ccc(OCc2ccccc2F)cc1` [FCE 26649] was run?
The ED50 was 12 mg/kg.

For `CNC(=O)[C@H](CO)NCc1ccc(OCc2cccc(F)c2)cc1` [FCE 26650, (S)-2-[4-(3-fluorobenzyloxy)benzyl]amino-3-hydroxy-N-methylpropionamide], which ED50 [1] is on record?
Its ED50 is 25 mg/kg.

With `C[C@H](NCc1ccc(OCc2ccccc2Cl)cc1)C(N)=O` [FCE 26700, (S)-2-[4-(2-chlorobenzyloxy)benzyl]aminopropionamide] as the compound, how does the ED50 [1] read?
Its ED50 is 17 mg/kg.

`C[C@H](NCc1ccc(Cc2ccccc2)cc1)C(N)=O` [FCE 26723, (S)-2-(4-benzylbenzyl)aminopropionamide] was tested. Which ED50 [1] did it give?
The ED50 was 16 mg/kg.

For `C[C@H](NCc1ccc(OCc2cccc(F)c2)cc1)C(N)=O` [FCE 26743, (S)-2-[4-(3-fluorobenzyloxy)benzyl]aminopropionamide], which ED50 [1] is on record?
Its ED50 is 29 mg/kg.

`C[C@H](NCc1ccc(NCc2ccccc2)cc1)C(N)=O` [FCE 26749, (S)-2-(4-benzylaminobenzyl)aminopropionamide] was tested. Which ED50 [1] did it give?
The ED50 was 9 mg/kg.

Which ED50 [1] does the source give for `C[C@@H](C(N)=O)N(C)Cc1ccc(Cc2ccccc2)cc1` [FCE 26762, (S)-2-[N-(4-benzylbenzyl)-N-methyl]aminopropionamide] here?
Its ED50 is 54 mg/kg.

For `CCCC(CCC)C(=O)O` [Valproate, reference compound], which ED50 [1] is on record?
The ED50 was 401 mg/kg.

What about the ED50 ([2]; 1 h) of the same compound?
Its ED50 is 302 mg/kg.
